Values belong to the compound of their own block, whether it stands above or below them.
Assays:
EGFR = molecular target: T1, EGFR (Homo sapiens, UniProt P00533); test: EGFR Activation-Inhibiting Test (DELFIA, EGF-stimulated A431 cells); type: cell-based; details: 60 min compound, EGF stimulation 45 min, read-out: IC50 (inhibition of EGF-stimulated EGFR activation)
T1 construct: endogenous in cells; host or cells: A431 (human epidermoid carcinoma)
Method: Cell seeding and starving: A431 (human epidermoid carcinoma) cells diluted in 10% […] containing DMEM are seeded at 1.3×10^4 cells/well in 96-well plates and incubated overnight. Then the cell culture medium is replaced with 90 μL/well serum-free DMEM medium. The plates are incubated overnight for starvation.
Compound dilution and treatment: the test compounds are diluted in a 3-fold series in FBS-free medium containing 5% DMSO. 10 μL/well of the diluted compound is added into cells, 10 μL/well of 5% DMSO without test compound is added into the control wells. Duplication study is performed for each test point. Then, the plates are incubated at 37° C. for 60 minutes in a 5% CO2 incubator. 10 μL/well of 200 ng/mL EGF (Biosource, PHG0064) is added and incubate the plates at 37° C. for 45 minutes in the 5% CO2 incubator.
Lysate preparation: the medium is removed, and 100 μL/well of 50 mM Tris-Cl, pH 8.0 cell lysis buffer (containing 0.5 M NaCl, 0.2 mM EDTA, 0.1% Triton X-100, 1 μg/mL aprotinin, 0.75 μg/mL leupeptin, 1 μg/mL pepstatin, 1 mM DTT, 500 μM sodium vanadate, and 1 mM PMSF) is added into each well to lyse cells. The protease inhibitors are added right before use. The cell lysate is frozen at −80° C. overnight.
Plate coating and blocking: 100 μL/well of 0.5 μg/ml anti-EGFR antibody (Perkin Elmer, AF231) diluted in PBS is added to a 96-well DELFIA plate (Perkin Elmer, AAAND-0001) and incubated at 25° C. overnight with gentle shaking. The solution is discarded. The plate is washed 3 times with 200 μL/well of DELFIA wash buffer (PBS buffer containing 0.05% Tween-20). 200 μL/well of blocking buffer (PBS containing 0.137 M of NaCl, 0.0027 M of KCl, 0.01 M of Na2PO4.12H2O, 0.0015 M of KH2PO4, pH7.4, and 1% BSA) is added into each well and the plate is incubated at 25° C. for 2 h with gentle shaking.
Binding: the blocking buffer is discarded and the plate is washed with 200 μL/well of DELFIA wash buffer 3 times. 80 μL/well of the sample diluent (20 mM Tris-Cl/pH7.3, 150 mM NaCl, 0.1% of BSA, and 0.05% Tween-20) and 20 μL/well of cell lysate are then added to each well. Incubate the plate at 25° C. for additional 1 h with gentle shaking.
Detection: The plate is washed again with 200 μL/well of DELFIA wash buffer for 3 times. 100 μL/well of […] Eu-PT66 antibody (Perkin Elmer, AD0040) diluted in DELFIA assay buffer (Perkin Elmer, 1244-106) is added and incubate the plate at 25° C. for 1 h with gentle shaking. After washing with 200 μL/well of DELFIA wash buffer 3 times, 100 μL/well of DELFIA enhancement buffer (Perkin Elmer, 4001-0010) is added. Incubate the plate at 25° C. for 30 min with gentle shaking.
Readout: fluorescence signal is measured at 340 nm excitation and 620 nm emission on Victor^3 (PerkinElmer).
Inhibition rates are calculated as follow:
[Fluorescence Readout]Treated is the readout of the wells treated with test compound upon EGF stimulation
[Fluorescence Readout]Untreated is the readout of the wells with neither compound treatment nor EGF stimulation, which is used as cell background signal
[Fluorescence Readout]EGF is the readout of wells with EGF stimulation, but no compound treatment, which is used as maximal signal
IC50 is calculated using XL-Fit 2.0 software.

[1] = tested on: A431 (human epidermoid carcinoma) xenograft; test: In vivo anti-tumor test, A431 subcutaneous xenograft; details: A431 xenograft in nude mice
Method: (§1) Human tumor cell lines: Fadu (human head and neck, pharynx carcinoma, HTB-43), HCC827 (human non small cell lung cancer, NSCLC; CRL-2868), A431 (human epidermoid carcinoma, CRL-2592) cell lines were purchased from ATCC; Fadu, HCC827 and A431 cells were grown in EMEM, RPMI 1640 and DMEM medium plus 10% FBS respectively. These cells were incubated in a humidifier incubator at 37° C. and under 5% CO2.
(§2) Animals: Athymic mice (6-8 weeks) were purchased from Shanghai SLAC laboratory animal CO. LTD. The animals were housed in the SPF environment, 4 animals/cage under standard conditions (12:12 h light/dark, 40-50% relative humidity at 20-25° C.) and were given free access to Co^60 radiated-sterile diet and sterile water.
(§3) Agents: Test compounds were formulated in sterile 0.5% CMC-Na at different concentrations (0.05˜1.0 mg/mL), and then stored at 4° C.
(§4) Subcutaneous implantation of tumor cells and anti-tumor efficacy study: The tumor cells were incubated at 37° C. in a 5% CO2 incubator until they reached approximately 80% confluence. Cells were detached by 0.05% Trypsin-EDTA, centrifuged at 800 rpm, and the cells were suspended in serum free medium. The concentration was adjusted for nude mice implantation. The nude mice were quarantined for several days before implantation, and 3×10^6 FaDu or A431 cells in 0.1 mL medium, or 5×10^6 HCC827 cells in the 0.2 mL medium were subcutaneously injected to the right lateral flank of nude mice.
(§5) One to three weeks after inoculation, when average tumor volume reached 100-300 mm^3, the animals were randomized and divided into vehicle and compound treated groups. The mice were orally administrated with either the vehicle, 0.5% CMC-Na, or the test compounds at different dose levels once a day. Tumor volume was measured 2-3 times per week by caliper for length and width, and was calculated using the formula: Tumor volume (TV, mm^3)=width^2×length/2. Animal body weight and behavior were observed during the experiment. […]
(§6) Tumor volume data were expressed as Mean±SD. […]

[2] = tested on: HCC827 (human non small cell lung cancer, NSCLC) xenograft; test: In vivo anti-tumor test, HCC827 subcutaneous xenograft; details: HCC827 xenograft in nude mice
Method: as §1, §2, §3, §4
One to three weeks after inoculation, when average tumor volume reached 100-300 mm^3, the animals were randomized and divided into vehicle and compound treated groups. The mice were orally administrated with either the vehicle, 0.5% CMC-Na, or the test compounds at different dose levels once a day. Tumor volume was measured 2-3 times per week by caliper for length and width, and was calculated using the formula: Tumor volume (TV, mm^3)=width^2×length/2. Animal body weight and behavior were observed during the experiment. Tumor growth inhibition was calculated as follows: TGI (%)=100−(T−T0)/(C−C0)×100%, where T represents mean tumor volume of a treated group on a specific day during the experiment, T0 represents mean tumor volume of the same treated group on the first day of treatment, C represents mean tumor volume of a control group on the specific day during the experiment, and C0 represents mean tumor volume of the same control group on the first day of treatment.
Tumor volume data were expressed as Mean±SD. One-way ANOVA was used for multiple comparisons and Student's t-test was used for comparison with vehicle control. Differences were considered statistically significant at P<0.05.

hERG channels = molecular target: T2, hERG channels (Homo sapiens, UniProt Q12809); test: hERG assay, manual whole-cell patch clamp; type: cell-based; details: CHO cells expressing hERG, five concentrations, read-out: IC50 for inhibition of hERG tail currents
T2 construct: expressed in transfected cells; host or cells: CHO
Method: A CHO cell line stably transfected with hERG cDNA and expressing hERG channels was used for the study. Cells were cultured in medium containing:
For the electrophysiological recordings the following solutions were used
Whole-cell recordings were performed using a EPC10 USB(HEKA). The cells were voltage clamped at a holding potential of −80 mV. The hERG current was activated by depolarizing at +20 mV for 2 sec, after which the current was taken back to −50 mV for 2 sec to remove the inactivation and observe the deactivating tail current. The first step at −50 mV was used as a baseline for measuring the tail current peak amplitude.
Compounds were prepared as a 10 mM DMSO stock in a glass vial. The stock solution was mixed vigorously for 10 minute at room temperature. For testing, the compound was diluted in a glass vial using solution; the dilution was prepared no longer than 30 minutes before use. Equal amounts of DMSO (0.1%) were present at final dilution.
After achieving whole-cell configuration, the cells were monitored for 90 sec to assess stability and washed with external solution for 66 sec. The voltage protocol described above was then applied to the cells every 20 sec throughout the whole procedure. Only stable cells with recording parameters above threshold were allowed to enter the drug addition procedure. […]
Data were analyzed using Pulsefit and Origin 7 (Originlab Corporation).

[3] = tested on: Fadu (human head and neck, pharynx carcinoma) xenograft; test: In vivo anti-tumor test, FaDu subcutaneous xenograft; details: FaDu xenograft in nude mice
Method: as §1, §2, §3, §4, §5, §6

T1 sequence (P00533 25-1210): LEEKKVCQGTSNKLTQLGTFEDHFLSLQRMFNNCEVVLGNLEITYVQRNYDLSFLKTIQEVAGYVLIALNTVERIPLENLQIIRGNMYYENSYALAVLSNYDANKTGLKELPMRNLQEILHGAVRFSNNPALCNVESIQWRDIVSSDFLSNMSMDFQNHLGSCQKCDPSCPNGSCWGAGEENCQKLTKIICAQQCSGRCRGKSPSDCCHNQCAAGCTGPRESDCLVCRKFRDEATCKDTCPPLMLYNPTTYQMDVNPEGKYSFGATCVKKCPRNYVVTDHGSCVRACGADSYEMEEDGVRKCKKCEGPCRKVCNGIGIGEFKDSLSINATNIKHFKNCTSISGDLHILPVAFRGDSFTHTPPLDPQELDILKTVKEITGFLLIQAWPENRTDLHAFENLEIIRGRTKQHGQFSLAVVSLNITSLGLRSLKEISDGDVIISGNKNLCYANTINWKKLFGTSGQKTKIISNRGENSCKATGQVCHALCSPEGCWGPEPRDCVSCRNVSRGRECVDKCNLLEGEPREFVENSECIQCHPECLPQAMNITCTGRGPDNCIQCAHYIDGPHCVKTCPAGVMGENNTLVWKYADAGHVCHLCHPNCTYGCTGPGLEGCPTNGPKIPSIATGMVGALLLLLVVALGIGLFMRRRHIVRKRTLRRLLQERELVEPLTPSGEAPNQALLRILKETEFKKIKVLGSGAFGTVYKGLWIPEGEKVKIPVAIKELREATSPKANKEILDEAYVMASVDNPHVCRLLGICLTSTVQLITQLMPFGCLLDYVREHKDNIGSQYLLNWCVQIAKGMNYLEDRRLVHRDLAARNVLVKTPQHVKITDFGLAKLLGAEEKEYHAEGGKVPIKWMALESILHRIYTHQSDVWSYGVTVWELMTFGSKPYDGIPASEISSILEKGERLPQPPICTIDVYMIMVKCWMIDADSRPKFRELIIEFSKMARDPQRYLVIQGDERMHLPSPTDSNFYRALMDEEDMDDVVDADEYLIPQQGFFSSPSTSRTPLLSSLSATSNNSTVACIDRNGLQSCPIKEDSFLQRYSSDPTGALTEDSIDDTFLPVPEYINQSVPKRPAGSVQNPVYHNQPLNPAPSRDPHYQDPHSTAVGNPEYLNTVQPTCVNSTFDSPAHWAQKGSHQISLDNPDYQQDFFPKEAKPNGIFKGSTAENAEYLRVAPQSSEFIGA
T2 sequence (Q12809 whole entry): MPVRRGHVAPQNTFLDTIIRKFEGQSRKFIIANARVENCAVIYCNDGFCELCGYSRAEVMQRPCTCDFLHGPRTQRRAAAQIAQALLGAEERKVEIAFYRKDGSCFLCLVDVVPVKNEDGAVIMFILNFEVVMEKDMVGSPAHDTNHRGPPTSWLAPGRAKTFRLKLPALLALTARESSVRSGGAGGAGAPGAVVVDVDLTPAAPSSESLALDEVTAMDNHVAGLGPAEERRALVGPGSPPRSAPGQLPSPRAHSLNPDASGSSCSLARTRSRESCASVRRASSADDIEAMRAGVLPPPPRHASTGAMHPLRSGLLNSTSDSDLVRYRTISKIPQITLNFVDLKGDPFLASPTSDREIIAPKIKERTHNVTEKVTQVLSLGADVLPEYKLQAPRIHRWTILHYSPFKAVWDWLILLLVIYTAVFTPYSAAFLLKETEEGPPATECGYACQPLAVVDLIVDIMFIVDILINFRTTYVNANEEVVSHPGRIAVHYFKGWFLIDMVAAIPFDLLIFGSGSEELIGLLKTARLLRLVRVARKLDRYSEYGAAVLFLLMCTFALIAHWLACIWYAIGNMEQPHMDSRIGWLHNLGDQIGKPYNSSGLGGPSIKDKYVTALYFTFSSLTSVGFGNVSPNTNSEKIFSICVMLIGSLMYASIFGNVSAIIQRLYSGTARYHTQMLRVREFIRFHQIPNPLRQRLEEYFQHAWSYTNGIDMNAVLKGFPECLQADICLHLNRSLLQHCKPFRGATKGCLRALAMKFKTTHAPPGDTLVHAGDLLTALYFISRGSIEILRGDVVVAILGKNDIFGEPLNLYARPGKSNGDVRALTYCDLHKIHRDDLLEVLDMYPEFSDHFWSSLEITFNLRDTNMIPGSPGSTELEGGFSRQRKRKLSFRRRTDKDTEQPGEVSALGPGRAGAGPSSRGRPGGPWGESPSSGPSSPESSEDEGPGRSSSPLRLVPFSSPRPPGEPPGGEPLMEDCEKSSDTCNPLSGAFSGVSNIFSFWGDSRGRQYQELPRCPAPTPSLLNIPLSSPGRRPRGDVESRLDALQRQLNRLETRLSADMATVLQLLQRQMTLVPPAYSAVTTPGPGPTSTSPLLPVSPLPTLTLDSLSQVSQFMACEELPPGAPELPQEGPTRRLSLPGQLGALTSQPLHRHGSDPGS

SMILES: COc1cc2ncnc(Nc3ccc4c(cnn4Cc4cccc(F)c4)c3)c2cc1NC(=O)N1C[C@H]2CCN(C)[C@H]2C1 [Compound 1, (3aR,6aR)—N-(4-(1-(3-fluorobenzyl)-1H-indazol-5-ylamino)-7-methoxyquinazolin-6-yl)-1-methylhexahydropyrrolo[3,4-b]pyrrole-5(1H)-carboxamide]
IC50 (EGFR): 185 nM

SMILES: COc1cc2ncnc(Nc3ccc4c(cnn4Cc4cccc(F)c4)c3)c2cc1NC(=O)N1C[C@@H]2CCN(C)[C@@H]2C1 [Compound 2, (3aS,6aS)—N-(4-(1-(3-fluorobenzyl)-1H-indazol-5-ylamino)-7-methoxyquinazolin-6-yl)-1-methylhexahydropyrrolo[3,4-b]pyrrole-5(1H)-carboxamide]
IC50 (EGFR): 439 nM

SMILES: C#Cc1cccc(Nc2ncnc3cc(OC)c(NC(=O)N4C[C@H]5CCN(C)[C@H]5C4)cc23)c1 [Compound 3, (3aR,6aR)—N-(4-(3-ethynylphenylamino)-7-methoxyquinazolin-6-yl)-1-methyl-hexahydropyrrolo[3,4-b]pyrrole-5(1H)-carboxamide]
TGI % ([1]; 2 mpk p.o. qd x 21 days): 21.3%
TGI % ([1]; 5 mpk p.o. qd x 21 days): 62.8%
TGI % ([1]; 10 mpk p.o. qd x 21 days): 85.3%
IC50 (EGFR): 6 nM
TGI % ([2]; 0.5 mpk p.o. qd x 21 days): 59.2%
TGI % ([2]; 1 mpk p.o. qd x 21 days): 114.7%
TGI % ([2]; 2 mpk p.o. qd x 21 days): 127.8%
TGI % ([2]; 5 mpk p.o. qd x 21 days): 140.8%
IC50 (hERG channels): 9300 ± 1200 nM
TGI % ([3]; 2 mpk p.o. qd x 21 days): 46.1%
TGI % ([3]; 5 mpk p.o. qd x 21 days): 66.9%
TGI % ([3]; 10 mpk p.o. qd x 21 days): 95.2%

SMILES: COc1cc2ncnc(Nc3ccc(OCc4cccc(F)c4)c(Cl)c3)c2cc1NC(=O)N1C[C@@H]2CCN(C)[C@@H]2C1 [Compound 4, (3aS,6aS)—N-(4-(3-chloro-4-(3-fluorobenzyloxy)phenylamino)-7-methoxyquinazolin-6-yl)-1-methylhexahydropyrrolo[3,4-b]pyrrole-5(1H)-carboxamide]
IC50 (EGFR): 16 nM

SMILES: COc1cc2ncnc(Nc3ccc(OCc4cccc(F)c4)c(Cl)c3)c2cc1NC(=O)N1C[C@H]2CCN(C)[C@H]2C1 [Compound 5, (3aR,6aR)—N-(4-(3-chloro-4-(3-fluorobenzyloxy)phenylamino)-7-methoxyquinazolin-6-yl)-1-methylhexahydropyrrolo[3,4-b]pyrrole-5(1H)-carboxamide]
IC50 (EGFR): 44 nM

Continued, values first:

IC50 (EGFR): 210 nM
SMILES: CN1CC[C@H]2CN(C(=O)Nc3ccc4ncnc(Nc5ccc(OCc6cccc(F)c6)c(Cl)c5)c4c3)C[C@H]21 [Compound 6, (3aS,6aS)—N-(4-(3-chloro-4-(3-fluorobenzyloxy)phenylamino)quinazolin-6-yl)-1-methylhexahydropyrrolo[3,4-b]pyrrole-5(1H)-carboxamide]

IC50 (EGFR): 241 nM
SMILES: CN1CC[C@@H]2CN(C(=O)Nc3ccc4ncnc(Nc5ccc(OCc6cccc(F)c6)c(Cl)c5)c4c3)C[C@@H]21 [Compound 7]
